The source of these data is patent US20250017888A1, “COMPOUNDS FOR TREATING DISEASES ASSOCIATED WITH HYALURONAN OVERPRODUCTION” (THE ROYAL VETERINARY COLLEGE, priority 2021, published 2025).

Entries after “also recorded” stand apart in the source; their conditions may differ.

Common to all, as to assay type: in vivo, mouse
The subject of series [1] is Str/ort mice. The series is described as follows: Health evaluation of treated Str/ort mice. As to conditions: 50 mg/kg intraperitoneally, 18 weeks, vs vehicle. As to the method: (§1) At 10-13 weeks of age, 21 male Str/ort mice (n=7/group) were assigned randomly to vehicle, hylin-betaine and xantho-betaine groups and were treated intraperitoneally 18 weeks with either vehicle (5% DMSO in 95% peanut oil), 50 mg/kg compound of Example 1 (“hylin-betaine”) in 5% DMSO and 95% peanut oil or 50 mg/kg compound of Example 2 (“xantho-betaine”) in 5% DMSO and 95% peanut oil.
To assess the health status after hylin-betaine and xantho-betaine treatment, mice were monitored for their health status. The monitoring criteria were body surface temperature, body weight, gait, coat condition, skin tenting for dehydration, hunching, activity, breathing rate and general body condition. Mice were scored blind for each one of these criteria from 1-5 except for body weight and temperature.

Series [2] concerns Str/ort mice. Nature of the series: Gait analysis (treadmill, Digigait) in Str/ort mice. As to the method: as §1
Gait was monitored using a treadmill-based video system (DigigaitTM system) in three treatment groups of mice at three time point, week 1, week 9 and week 18 of treatment. The number of mice was 7, 7 and 5 in groups 1, 2 and 3, respectively.
[…] gait descriptors were used for the analyses. Thirty-four descriptors were obtained directly from the software of the system in the 4 limbs (LF: left front; RF: right front; LR: left rear; RR: right rear). All the others (143) were calculated indexes from gait measurements including swing, stance, brake, propel and stride times, stride length, frequency and coefficient of variation, paw area and paw angle and the variability of those two traits, the coefficient of variation of swing duration mid line distance, and minimum and maximum dAdT. The ratios of times were calculated in the 4 limbs: Brake, Propel, and Swing times relative to Stance and Stride times, Stance/Swing and Stance/Stride. In addition, the following additional indexes were considered:
In order to investigate whether there were differences among groups for each descriptor at the three experimental dates, an ANOVA was performed using data corresponding to each descriptor and date. Bonferroni correction was applied to counteract the problem of multiple comparisons.
A t-test analysis was also performed comparing only two groups at a time. In order to assess whether differences between both groups could be due to differences in gait change regarding the initial condition (at 2014/12/23), two sets of analyses were performed for data at 2015/02/18 and 2015/04/14, respectively by using Logistic Regression Analysis. The model included two independent variables: the initial value for each descriptor and the difference between the corresponding value at 2015/02/18 (or 2015/04/14) and the initial value. Bonferroni correction was also applied.

Series [3] has as its system Str/ort mice. Nature of the series: Micro-CT of tibial trabecular and cortical bone in Str/ort mice. As to the method: At 10-13 weeks of age, 21 male Str/ort mice (n=7/group) were assigned randomly to vehicle, hylin-betaine and xantho-betaine groups and were treated intraperitoneally 18 weeks with either vehicle (5% DMSO in 95% peanut oil), 50 mg/kg compound of Example 1 (“hylin-betaine”) in 5% DMSO and 95% peanut oil or 50 mg/kg compound of Example 2 (“xantho-betaine”) in 5% DMSO and 95% peanut oil. Micro-CT scanning and analysis were performed as described previously. Briefly, tibiae from vehicle, hylin-betaine and xantho-betaine treated groups were scanned using the Skyscan 1172 (Skyscan, Kontich, Belgium), with x-ray tube operated at 50 kV and 200 Micro-A, 1600 ms exposure time with a 0.5 mm aluminium filter and a voxel size of micro-m 5. The scanning time for each sample was approximately 2 hours. The slices were then reconstructed using NRecon 1.6.9.4 (Skyscan, Kontich, Belgium). 2D/3D analyses were performed using CTAn 1.15.4.0+ version software (Skyscan, Kontich, Belgium). Additionally, 3D visualization and production of colour-coded images of trabecular, cortical and skull bones were conducted using Avizo 9.0.0 software (FEI, Oregon USA). • a. Trabecular analysis: prior to analysis, Micro-CT images were re-oriented in DataViewer 1.5.0 (Skyscan, Kontich, Belgium), such that the cross-section within the transverse plane was perpendicular to the long axis of the bone. Tibial length was measured in CTAn 1.15.4.0+ software using a straight line measuring tool and the appearance of the trabecular ‘bridge’ connecting the two primary spongiosa bone ‘islands’ was set as reference point for analysis of the metaphyseal trabecular bone adjacent to the epiphyseal growth plate. 5% of the total bone length from this point (towards the diaphysis) was utilised for trabecular analysis of the proximal tibia. The trabecular region of interest was drawn freehand using the selection tool of CTAn, a few voxels away from the endocortical surfaces in order to avoid inclusion of remnants of primary spongiosa associated with cortical bone. The selected trabecular regions of interests were analysed using CTAn BatMan software (Skyscan, Kontich, Belgium) and morphometric parameters were recorded. • b. Whole bone cortical analysis: Whole bone analysis was performed on datasets derived from CT scans using BoneJ (version 1.4.0), an ImageJ plugin. Following segmentation, alignment and removal of fibula from the dataset, a minimum bone threshold was selected using a histogram based method in ImageJ which utilises all pixels in a stack to construct a histogram and was further confirmed using ImageJ “threshold function”. The threshold ranged between 22000-22100 and was applied to all datasets to separate higher density bone from soft tissues and air. This threshold was used in “Slice Geometry” function within BoneJ to calculate bone cross sectional area (CSA), second moment of area around the minor axis (Imin), second moment of area around the major axis (Imax), mean thickness determined by local thickness in two dimensions (Ct.Th), ellipticity and resistance to torsion (J). The most proximal (15%) and the most distal portions (25%) of tibial length were excluded from analysis, as these regions include trabecular bone.

Series [4] deals with Str/ort mice. The series is described as follows: Histology and grading of articular cartilage lesions in Str/ort mice. As to the method:
At 10-13 weeks of age, 21 male Str/ort mice (n=7/group) were assigned randomly to vehicle, hylin-betaine and xantho-betaine groups and were treated intraperitoneally 18 weeks with either vehicle (5% DMSO in 95% peanut oil), 50 mg/kg compound of Example 1 (“hylin-betaine”) in 5% DMSO and 95% peanut oil or 50 mg/kg compound of Example 2 (“xantho-betaine”) in 5% DMSO and 95% peanut oil. Dissected right knees were fixed in neutral buffered formalin, decalcified (Immunocal, Quartett, Berlin), wax-embedded and 6 μm coronal sections cut. Multiple sections (five/slide) from 120 μm intervals across the whole joint were stained with Tollidine blue (0.1% in 0.1 M acetate buffer, pH 5.6) and AC lesion severity graded. Sections from right vehicle, hylin-betaine and xantho-betaine treated Str/ort joints were stained with Safranin O. Sections were dewaxed, and AC lesion severity was scored in Str/ort mice by the methods of Chambers et al., (Chambers et al Expression of collagen and aggrecan genes in normal and osteoarthritic murine knee joints. Osteoarthritis and cartilage/OARS, Osteoarthritis Research Society. 2002; 10(1):51-61) consistent with an internationally-recognized system. Briefly, grade 0: normal; grade 1: rough surface or superficial zone lesions; grade 2: lesion down to the intermediate zone; grade 3: lesions down to tidemark or loss of AC; grades 4 and 5: AC loss across between 20% and 50% or 50-80% of condylar surface; grade 6: loss with subchondral bone exposure. Multiple slides (˜10), each containing five 6 μm sections sampled at 120 μm intervals spanning each entire joint were graded. Grading in each joint compartment (lateral/medial, tibia/femur) allowed for a maximum (most severe) grade to be assigned in each section, and used to produce an overall ‘average’ maximum grade in each group of mice, for the entire joint and for each compartment. In addition, a mean score was produced for each joint and for each compartment and these similarly used to produce an overall ‘average’ mean grade in each group of mice. Mean grades provide a measure of the ‘extent’ of AC lesion (representing relative volume) in each joint/compartment.

For series [5], the system named is Str/ort mice. The series is described as follows: Micro-CT of tibial trabecular and cortical bone in Str/ort mice. As to conditions: 10-90% of total tibial length, vs vehicle.
Setting [6] is: 50 mg/kg intraperitoneally, 18 weeks.
Where [7] appears, read: 50 mg/kg intraperitoneally, 18 weeks, vs vehicle.

Consider `COc1cc(/C=C/C(=O)/C=C/c2ccc(OC(=O)C[N+](C)(C)C)c(OC)c2)ccc1O.[Cl-]` [Hylin-betaine, 2-(4-((1E,4E)-5-(4-hydroxy-3-methoxyphenyl)-3-oxopenta-1,4-dien-1-yl)-2-methoxyphenoxy)-N,N,N-trimethyl-2-oxoethanaminium chloride], for which the “health status: weight, hunching, gait, activity, vocalisation and respiration scores, coat condition” value in the series with Str/ort mice [1] was “does not alter”. Moreover, in the series on Str/ort mice [2] (setting [6]), the “mice that refused to run (drop-out) during the gait studies” value was “no mice”. Moreover, the “percentage of drop-out regarding the total number of runs” value in the series with Str/ort mice [2] (setting [6]) was found to be 0%. Further, the “distribution of gait data (runs) by treatment group” value with Str/ort mice [2] (2014 Dec. 23), with Str/ort mice [2] (2015 Apr. 14) and in the series on Str/ort mice [2] (2015 Feb. 18) was 7 in each case. Besides, in the series with Str/ort mice [2] (any time point, compared with vehicle group), the “effect on all gait descriptors” value is on record as “no significant effect”. Moreover, in the series with Str/ort mice [3] (setting [7]), the “metaphyseal trabecular bone architecture and mass (tibial length, BV/TV, TV, BV, eccentricity, thickness, separation, number)” value is on record as “do not alter”. The “cortical cross-sectional area (CSA)” value with Str/ort mice [3] (apart from one distal region and a region close to tibio-fibula junction) is on record as “do not significantly”. Besides, in the series with Str/ort mice [3] (multiple regions from −15-60% tibial length, vs vehicle), the “mean cortical cross-sectional thickness” value is “significantly enhanced”. Besides, the “second moment of area around minor axis (Imin)” value in the series on Str/ort mice [3] (vs vehicle, one region proximally) is recorded as “does not affect”. In the series with Str/ort mice [3] (vs vehicle, region ˜40-50% along the tibia), the tibial ellipticity entry was “modified by xantho-betaine but not hylin-betaine”. Moreover, the “second moment of area around major axis (Imax)” value in the series on Str/ort mice [3] (vs vehicle, ˜35-55% of tibial length) is on record as “did not affect”. Moreover, the “effect on articular cartilage lesions / development of OA (overall)” value with Str/ort mice [4] (setting [7]) is “prevents/improves articular cartilage lesions; also recorded: protective effect”. In the series on Str/ort mice [4] (tibial and femoral lateral knee joint compartments, vs vehicle), the “Mean OA scores” value is reported as “statistically significantly lower”. Further, in the series on Str/ort mice [4] (vs vehicle treated Str/ort mice), the “maximum OA score” value was “trend for lower maximum score”. Besides, the “effect on cortical bone (overall)” value with Str/ort mice [5] was “significantly alter”.
